Where two headings read alike, the source gives them in different places.
What was measured:
Type in all cases: cell-based
[1] = tested on: proteins of U3A human fibrosarcoma cells (4462 proteins detected)
[2] = biological target: proteins of U3A human fibrosarcoma cells (4462 proteins detected) (Homo sapiens, UniProt Q12979); details: protein ABR; U3A cells
[3] = biological target: proteins of U3A human fibrosarcoma cells (4462 proteins detected) (Homo sapiens, UniProt O00159); details: protein MYO1C, U3A cells
[4] = biological target: proteins of U3A human fibrosarcoma cells (4462 proteins detected) (Homo sapiens, UniProt Q12905); details: protein ILF2; U3A cells
[5] = biological target: proteins of U3A human fibrosarcoma cells (4462 proteins detected) (Homo sapiens, UniProt P46939); details: protein UTRN; soluble abundance after heat, U3A cells
[6] = biological target: proteins of U3A human fibrosarcoma cells (4462 proteins detected) (Homo sapiens, UniProt P62993); details: protein GRB2, U3A cells
[7] = biological target: proteins of U3A human fibrosarcoma cells (4462 proteins detected) (Homo sapiens, UniProt Q9NX08); details: protein COMMD8; soluble abundance after heat, U3A cells
[8] = biological target: proteins of U3A human fibrosarcoma cells (4462 proteins detected) (Homo sapiens, UniProt P48507); details: protein GCLM; U3A cells
[9] = biological target: proteins of U3A human fibrosarcoma cells (4462 proteins detected) (Homo sapiens, UniProt Q9HCN4); details: protein GPN1; soluble abundance after heat, U3A cells
[10] = biological target: proteins of U3A human fibrosarcoma cells (4462 proteins detected) (Homo sapiens, UniProt Q15366); details: protein PCBP2; U3A cells
[11] = biological target: proteins of U3A human fibrosarcoma cells (4462 proteins detected) (Homo sapiens, UniProt Q9BYG3); details: protein NIFK; soluble abundance after heat, U3A cells
[12] = biological target: proteins of U3A human fibrosarcoma cells (4462 proteins detected) (Homo sapiens, UniProt Q9UFW8); details: protein CGGBP1; soluble abundance after heat, U3A cells
[13] = biological target: proteins of U3A human fibrosarcoma cells (4462 proteins detected) (Homo sapiens, UniProt P30086); details: protein PEBP1, U3A cells
[14] = biological target: proteins of U3A human fibrosarcoma cells (4462 proteins detected) (Homo sapiens, UniProt O94915); details: protein FRYL; U3A, 10 μM, 2 h
[15] = biological target: proteins of U3A human fibrosarcoma cells (4462 proteins detected) (Homo sapiens, UniProt Q9UQR1); details: protein ZNF148; U3A, 10 μM, 2 h
[16] = biological target: proteins of U3A human fibrosarcoma cells (4462 proteins detected) (Homo sapiens, UniProt P17844); details: protein DDX5; U3A cells
[17] = biological target: proteins of U3A human fibrosarcoma cells (4462 proteins detected) (Homo sapiens, UniProt Q00765); details: protein REEP5; U3A cells
[18] = biological target: proteins of U3A human fibrosarcoma cells (4462 proteins detected) (Homo sapiens, UniProt Q9UQ80); details: protein PA2G4, U3A cells
[19] = biological target: proteins of U3A human fibrosarcoma cells (4462 proteins detected) (Homo sapiens, UniProt Q9H3P7); details: protein ACBD3; U3A, 10 μM, 2 h
[20] = biological target: proteins of U3A human fibrosarcoma cells (4462 proteins detected) (Homo sapiens, UniProt Q12805); details: protein EFEMP1; U3A cells
[21] = biological target: proteins of U3A human fibrosarcoma cells (4462 proteins detected) (Homo sapiens, UniProt P10809); details: protein HSPD1; U3A, 10 μM, 2 h
[22] = biological target: proteins of U3A human fibrosarcoma cells (4462 proteins detected) (Homo sapiens, UniProt P04183); details: protein TK1; U3A cells
[23] = biological target: proteins of U3A human fibrosarcoma cells (4462 proteins detected) (Homo sapiens, UniProt P78371); details: protein CCT2; U3A cells
[24] = biological target: proteins of U3A human fibrosarcoma cells (4462 proteins detected) (Homo sapiens, UniProt Q13641); details: protein TPBG; soluble abundance after heat, U3A cells
[25] = biological target: proteins of U3A human fibrosarcoma cells (4462 proteins detected) (Homo sapiens, UniProt Q9NYJ1); details: protein COA4; U3A cells
[26] = biological target: proteins of U3A human fibrosarcoma cells (4462 proteins detected) (Homo sapiens, UniProt Q9NPD8); details: protein UBE2T; soluble abundance after heat, U3A cells
[27] = biological target: proteins of U3A human fibrosarcoma cells (4462 proteins detected) (Homo sapiens, UniProt P35221); details: protein CTNNA1; U3A, 10 μM, 2 h

proteins of U3A human fibrosarcoma cells (4462 proteins detected) (Homo sapiens, UniProt O00159), sequence (O00159 whole entry): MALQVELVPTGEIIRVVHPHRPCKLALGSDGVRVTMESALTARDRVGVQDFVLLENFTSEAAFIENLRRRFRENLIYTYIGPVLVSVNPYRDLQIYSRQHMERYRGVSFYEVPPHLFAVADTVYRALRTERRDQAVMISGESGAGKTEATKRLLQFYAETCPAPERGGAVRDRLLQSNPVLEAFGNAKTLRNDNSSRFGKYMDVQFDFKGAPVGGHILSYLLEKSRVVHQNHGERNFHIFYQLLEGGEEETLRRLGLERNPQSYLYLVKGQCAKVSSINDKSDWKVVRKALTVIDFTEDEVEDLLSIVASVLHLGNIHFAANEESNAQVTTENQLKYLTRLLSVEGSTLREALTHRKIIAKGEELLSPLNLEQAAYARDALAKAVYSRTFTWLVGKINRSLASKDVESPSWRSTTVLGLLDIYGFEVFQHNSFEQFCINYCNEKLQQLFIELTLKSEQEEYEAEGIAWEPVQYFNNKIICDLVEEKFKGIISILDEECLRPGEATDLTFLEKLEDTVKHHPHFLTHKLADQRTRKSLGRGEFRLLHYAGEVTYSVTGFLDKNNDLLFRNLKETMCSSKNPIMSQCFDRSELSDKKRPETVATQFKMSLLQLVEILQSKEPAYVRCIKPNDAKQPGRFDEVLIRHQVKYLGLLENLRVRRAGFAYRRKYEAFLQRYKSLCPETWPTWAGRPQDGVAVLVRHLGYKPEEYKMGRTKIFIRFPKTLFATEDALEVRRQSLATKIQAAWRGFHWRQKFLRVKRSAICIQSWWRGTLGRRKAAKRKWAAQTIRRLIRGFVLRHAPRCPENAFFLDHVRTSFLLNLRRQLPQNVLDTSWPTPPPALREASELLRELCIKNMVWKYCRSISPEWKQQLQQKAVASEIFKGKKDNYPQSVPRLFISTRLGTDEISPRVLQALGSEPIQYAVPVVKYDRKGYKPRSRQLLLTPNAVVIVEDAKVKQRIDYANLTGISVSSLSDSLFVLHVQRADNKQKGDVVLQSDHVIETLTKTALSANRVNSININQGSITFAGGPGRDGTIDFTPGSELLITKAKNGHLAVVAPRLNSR
proteins of U3A human fibrosarcoma cells (4462 proteins detected) (Homo sapiens, UniProt P62993), sequence (P62993 whole entry): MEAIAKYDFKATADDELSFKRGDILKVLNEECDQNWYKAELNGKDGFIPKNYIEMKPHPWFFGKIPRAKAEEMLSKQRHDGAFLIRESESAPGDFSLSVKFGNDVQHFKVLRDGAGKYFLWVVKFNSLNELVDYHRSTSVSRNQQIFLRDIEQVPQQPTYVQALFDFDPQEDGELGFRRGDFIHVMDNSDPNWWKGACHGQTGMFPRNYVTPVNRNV
proteins of U3A human fibrosarcoma cells (4462 proteins detected) (Homo sapiens, UniProt Q15366), sequence (Q15366 whole entry): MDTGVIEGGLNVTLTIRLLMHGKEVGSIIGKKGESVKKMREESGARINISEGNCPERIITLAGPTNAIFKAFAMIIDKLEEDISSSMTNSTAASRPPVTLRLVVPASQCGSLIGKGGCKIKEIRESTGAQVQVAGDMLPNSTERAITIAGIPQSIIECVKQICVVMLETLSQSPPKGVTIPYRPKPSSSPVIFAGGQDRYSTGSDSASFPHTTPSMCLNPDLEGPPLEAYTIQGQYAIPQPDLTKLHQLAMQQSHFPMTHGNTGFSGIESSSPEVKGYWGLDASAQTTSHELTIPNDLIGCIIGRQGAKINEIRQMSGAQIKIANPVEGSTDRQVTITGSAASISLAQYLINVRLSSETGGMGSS
proteins of U3A human fibrosarcoma cells (4462 proteins detected) (Homo sapiens, UniProt Q9NPD8), sequence (Q9NPD8 whole entry): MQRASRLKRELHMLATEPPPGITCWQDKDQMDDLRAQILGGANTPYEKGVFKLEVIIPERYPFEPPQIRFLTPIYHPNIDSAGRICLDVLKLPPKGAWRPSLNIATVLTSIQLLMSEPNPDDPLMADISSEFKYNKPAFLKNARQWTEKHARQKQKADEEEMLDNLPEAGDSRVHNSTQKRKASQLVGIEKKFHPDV
proteins of U3A human fibrosarcoma cells (4462 proteins detected) (Homo sapiens, UniProt Q00765), sequence (Q00765 whole entry): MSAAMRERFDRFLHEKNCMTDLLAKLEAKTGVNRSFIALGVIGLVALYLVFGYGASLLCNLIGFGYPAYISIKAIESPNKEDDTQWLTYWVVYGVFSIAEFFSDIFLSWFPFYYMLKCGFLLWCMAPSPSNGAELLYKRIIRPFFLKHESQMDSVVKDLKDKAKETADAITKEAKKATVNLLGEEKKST
proteins of U3A human fibrosarcoma cells (4462 proteins detected) (Homo sapiens, UniProt P78371), sequence (P78371 whole entry): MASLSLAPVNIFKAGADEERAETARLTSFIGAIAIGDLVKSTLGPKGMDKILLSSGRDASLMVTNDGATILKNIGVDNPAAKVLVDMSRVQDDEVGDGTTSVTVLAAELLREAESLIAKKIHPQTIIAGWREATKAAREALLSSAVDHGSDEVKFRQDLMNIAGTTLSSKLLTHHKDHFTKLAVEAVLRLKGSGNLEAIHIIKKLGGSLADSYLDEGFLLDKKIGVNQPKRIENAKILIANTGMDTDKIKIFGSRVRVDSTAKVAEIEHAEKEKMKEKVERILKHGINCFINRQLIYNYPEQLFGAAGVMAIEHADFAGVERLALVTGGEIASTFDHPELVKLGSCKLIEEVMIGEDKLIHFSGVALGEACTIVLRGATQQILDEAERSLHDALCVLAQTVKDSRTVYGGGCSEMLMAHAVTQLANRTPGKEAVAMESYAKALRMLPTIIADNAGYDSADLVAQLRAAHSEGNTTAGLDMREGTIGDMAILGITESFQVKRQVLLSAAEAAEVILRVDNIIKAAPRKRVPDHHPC
proteins of U3A human fibrosarcoma cells (4462 proteins detected) (Homo sapiens, UniProt Q12979), sequence (Q12979 whole entry): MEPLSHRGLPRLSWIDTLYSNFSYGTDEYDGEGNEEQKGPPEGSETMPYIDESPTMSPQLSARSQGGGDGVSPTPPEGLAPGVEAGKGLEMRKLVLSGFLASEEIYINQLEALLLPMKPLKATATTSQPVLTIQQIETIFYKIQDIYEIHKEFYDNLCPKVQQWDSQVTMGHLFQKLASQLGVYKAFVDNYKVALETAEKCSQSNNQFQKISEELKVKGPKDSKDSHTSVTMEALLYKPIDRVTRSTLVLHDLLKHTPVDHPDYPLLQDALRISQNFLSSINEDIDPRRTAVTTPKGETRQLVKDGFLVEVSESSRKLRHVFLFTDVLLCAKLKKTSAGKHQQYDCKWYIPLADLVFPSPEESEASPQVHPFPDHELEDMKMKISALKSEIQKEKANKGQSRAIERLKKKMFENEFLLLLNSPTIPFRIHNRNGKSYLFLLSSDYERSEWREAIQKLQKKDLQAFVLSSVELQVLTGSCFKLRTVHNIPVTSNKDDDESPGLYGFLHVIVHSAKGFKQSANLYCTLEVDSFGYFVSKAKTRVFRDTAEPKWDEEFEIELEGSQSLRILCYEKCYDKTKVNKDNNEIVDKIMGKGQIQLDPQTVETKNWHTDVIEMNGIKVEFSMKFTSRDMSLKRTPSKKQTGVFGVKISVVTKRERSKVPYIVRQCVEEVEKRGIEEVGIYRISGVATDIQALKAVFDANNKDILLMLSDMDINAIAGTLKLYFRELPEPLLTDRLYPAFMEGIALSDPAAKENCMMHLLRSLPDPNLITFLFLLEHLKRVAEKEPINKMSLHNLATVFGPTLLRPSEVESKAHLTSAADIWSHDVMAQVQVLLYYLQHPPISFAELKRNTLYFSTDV
proteins of U3A human fibrosarcoma cells (4462 proteins detected) (Homo sapiens, UniProt P10809), sequence (P10809 27-573): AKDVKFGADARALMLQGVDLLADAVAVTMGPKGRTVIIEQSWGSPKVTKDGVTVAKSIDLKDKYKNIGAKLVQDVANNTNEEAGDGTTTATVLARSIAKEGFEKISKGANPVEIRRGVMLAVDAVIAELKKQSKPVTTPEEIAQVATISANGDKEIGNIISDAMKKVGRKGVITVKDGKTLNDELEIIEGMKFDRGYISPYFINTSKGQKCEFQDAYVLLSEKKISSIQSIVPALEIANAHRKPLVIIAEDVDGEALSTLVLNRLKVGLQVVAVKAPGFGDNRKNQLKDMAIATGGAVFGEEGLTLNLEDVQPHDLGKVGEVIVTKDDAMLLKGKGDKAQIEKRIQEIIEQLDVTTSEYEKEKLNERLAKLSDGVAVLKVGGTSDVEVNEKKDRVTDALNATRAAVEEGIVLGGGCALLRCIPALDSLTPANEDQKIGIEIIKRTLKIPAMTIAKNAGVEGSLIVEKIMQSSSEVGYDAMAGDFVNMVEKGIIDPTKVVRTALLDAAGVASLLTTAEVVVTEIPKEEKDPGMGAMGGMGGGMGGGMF
proteins of U3A human fibrosarcoma cells (4462 proteins detected) (Homo sapiens, UniProt P04183), sequence (P04183 whole entry): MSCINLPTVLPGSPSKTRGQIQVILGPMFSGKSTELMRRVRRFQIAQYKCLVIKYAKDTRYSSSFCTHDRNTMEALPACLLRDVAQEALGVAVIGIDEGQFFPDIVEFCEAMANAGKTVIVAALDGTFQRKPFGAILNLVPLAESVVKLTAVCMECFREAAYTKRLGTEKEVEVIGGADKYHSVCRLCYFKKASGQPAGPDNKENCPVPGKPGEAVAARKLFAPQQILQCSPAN
proteins of U3A human fibrosarcoma cells (4462 proteins detected) (Homo sapiens, UniProt Q9UQR1), sequence (Q9UQR1 whole entry): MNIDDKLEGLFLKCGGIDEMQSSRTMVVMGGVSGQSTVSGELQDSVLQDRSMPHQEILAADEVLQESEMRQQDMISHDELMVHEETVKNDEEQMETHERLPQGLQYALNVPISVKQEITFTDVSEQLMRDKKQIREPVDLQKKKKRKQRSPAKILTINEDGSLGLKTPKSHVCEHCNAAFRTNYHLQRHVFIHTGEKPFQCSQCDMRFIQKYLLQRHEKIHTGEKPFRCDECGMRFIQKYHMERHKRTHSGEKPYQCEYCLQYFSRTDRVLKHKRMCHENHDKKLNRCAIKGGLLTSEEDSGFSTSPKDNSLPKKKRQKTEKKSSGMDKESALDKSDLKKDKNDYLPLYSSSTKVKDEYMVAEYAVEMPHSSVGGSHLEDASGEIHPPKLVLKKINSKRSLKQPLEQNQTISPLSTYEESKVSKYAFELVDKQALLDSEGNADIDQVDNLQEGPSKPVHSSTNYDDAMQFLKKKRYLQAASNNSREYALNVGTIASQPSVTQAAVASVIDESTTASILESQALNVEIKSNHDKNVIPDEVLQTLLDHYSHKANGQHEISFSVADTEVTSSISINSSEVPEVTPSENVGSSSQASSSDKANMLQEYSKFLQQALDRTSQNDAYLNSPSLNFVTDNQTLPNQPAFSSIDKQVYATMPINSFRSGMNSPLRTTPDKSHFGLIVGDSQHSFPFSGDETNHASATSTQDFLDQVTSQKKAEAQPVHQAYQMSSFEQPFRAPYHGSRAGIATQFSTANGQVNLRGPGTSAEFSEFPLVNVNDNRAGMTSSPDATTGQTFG

In the case of `CCc1nc(N)nc(N)c1-c1ccc(Cl)cc1` [pyrimethamine], the “Log2 (PYR/DMSO)” value ([1]; protein AGO2, AGO1, AGO3, AGO4, soluble abundance after heat, U3A cells) is reported as 0.14, the “Log2 (PYR/DMSO), ANXA8L1; ANXA8L2; ANXA8” value ([1]; protein ANXA8L1, ANXA8L2, ANXA8, U3A, 10 μM, 2 h) is reported as -0.40 and the “Log2 (PYR/DMSO), ATP2A2; ATP2A1; ATP2A3” value ([1]; protein ATP2A2, ATP2A1, ATP2A3, U3A, 10 μM, 2 h) is reported as 0.28. The “Log2 (PYR/DMSO)” value ([1]; protein CUX1, U3A cells) was 0.20, the “Log2 (PYR/DMSO)” value ([1]; protein DHRS4, DHRS4L1, soluble abundance after heat, U3A cells) was 0.13 and the “Log2 (PYR/DMSO)” value ([1]; protein EIF3C, EIF3CL, U3A cells) was 0.18. The “Log2 (PYR/DMSO)” value ([1]; protein Em:AP000351.3, GSTT2, GSTT2B, U3A cells) was -0.05, the “Log2 (PYR/DMSO)” value ([1]; protein H2AFX, HIST1H2AJ, HIST1H2AH, H2AFJ, HIST2H2AC, HIST1H2AC, HIST3H2A, HIST2H2AA3, HIST1H2AD, HIST1H2AG, HIST1H2AB, HIST1H2AA, HIST2H2AB, U3A cells) was 0.19 and the “Log2 (PYR/DMSO)” value ([1]; protein HIST2H3A, HIST3H3, HIST1H3A, H3F3B, H3F3A, HIST2H3PS2, H3F3C, U3A cells) was 0.22. For the same compound, the “Log2 (PYR/DMSO)” value ([1]; protein HPCAL1, HPCA, soluble abundance after heat, U3A cells) was 0.15, the “Log2 (PYR/DMSO)” value ([1]; protein KHDRBS1, KHDRBS2, soluble abundance after heat, U3A cells) was 0.14 and the “Log2 (PYR/DMSO), KIAA2012; SPEG” value ([1]; protein KIAA2012, SPEG, U3A, 10 μM, 2 h) was 0.26. For the same compound, the “Log2 (PYR/DMSO)” value ([1]; protein MOCS2, U3A cells) was -0.04, the “Log2 (PYR/DMSO)” value ([1]; protein POLR2J3, POLR2J, POLR2J2, U3A cells) was -0.04 and the “Log2 (PYR/DMSO)” value ([1]; protein POM121C, POM121, POMZP3, soluble abundance after heat, U3A cells) was 0.14. The “Log2 (PYR/DMSO)” value ([1]; protein PPP1R2, PPP1R2P3, U3A cells) was -0.04, the “Log2 (PYR/DMSO), PRSS1; PRSS3P2; PRSS2” value ([1]; protein PRSS1, PRSS3P2, PRSS2, U3A, 10 μM, 2 h) was -0.20 and the “Log2 (PYR/DMSO), SLC25A5; SLC25A4; SLC25A6; SLC25A31” value ([1]; protein SLC25A5, SLC25A4, SLC25A6, SLC25A31, U3A, 10 μM, 2 h) was 0.31. For the same compound, the “Log2 (PYR/DMSO)” value ([1]; protein UBE2Q1, UBE2Q2, U3A cells) was 0.20, the “Log2 (PYR/DMSO)” value [2] was 0.18 and the “Log2 (PYR/DMSO)” value [3] was -0.03. For the same compound, the “Log2 (PYR/DMSO)” value [4] was 0.18, the “Log2 (PYR/DMSO)” value [5] was 0.13 and the “Log2 (PYR/DMSO)” value [6] was -0.04. The “Log2 (PYR/DMSO)” value [7] was 0.14, the “Log2 (PYR/DMSO)” value [8] was 0.20 and the “Log2 (PYR/DMSO)” value [9] was 0.15. For the same compound, the “Log2 (PYR/DMSO)” value [10] was 0.18, the “Log2 (PYR/DMSO)” value [11] was 0.14 and the “Log2 (PYR/DMSO)” value [12] was 0.14. The “Log2 (PYR/DMSO)” value [13] was -0.04, the “Log2 (PYR/DMSO), FRYL” value [14] was 0.28 and the “Log2 (PYR/DMSO), ZNF148” value [15] was 0.26. The “Log2 (PYR/DMSO)” value [16] was 0.19, the “Log2 (PYR/DMSO)” value [17] was 0.19 and the “Log2 (PYR/DMSO)” value [18] was -0.03. The “Log2 (PYR/DMSO), ACBD3” value [19] was 0.24, the “Log2 (PYR/DMSO)” value [20] was 0.18 and the “Log2 (PYR/DMSO), HSPD1” value [21] was 0.35. The “Log2 (PYR/DMSO)” value [22] was 0.19, the “Log2 (PYR/DMSO)” value [23] was 0.17 and the “Log2 (PYR/DMSO)” value [24] was 0.14. For the same compound, the “Log2 (PYR/DMSO)” value [25] was 0.18, the “Log2 (PYR/DMSO)” value [26] was 0.13 and the “Log2 (PYR/DMSO), CTNNA1” value [27] was 0.23.

From paper PMC8800111 (The Journal of Biological Chemistry, 2021)
